The values that follow come from patent US7563774B2, “Combination of FBPase inhibitors and antidiabetic agents useful for the treatment of diabetes” (Metabasis Therapeutics, Inc., priority 2000, dated 2009).

The subject of one series is rat hepatocytes. In words: Glucose production and fructose-1,6-bisphosphate levels in rat hepatocytes (Example D). The format is cell-based. As to the method:
Hepatocytes were prepared from fed Sprague-Dawley rats (250-300 g) according to the procedure of Berry and Friend (Berry, M. N., Friend, D. S., 1969, J. Cell. Biol. 43, 506-520) as modified by Groen (Groen, A. K., Sips, H. J., Vervoom, R. C., Tager, J. M., 1982, Eur. J. Biochem. 122, 87-93). Hepatocytes (75 mg wet weight/mL) were incubated in 1 mL Krebs-bicarbonate buffer containing 10 mM Lactate, 1 mM pyruvate, 1 mg/mL BSA, and test compound concentrations from 0 to 500 μM. Incubations were carried out in a 95% oxygen, 5% carbon dioxide atmosphere in closed, 50-mL Falcon tubes submerged in a rapidly shaking water bath (37° C.). After 1 hour, an aliquot (0.25 mL) was removed, transferred to an Eppendorf tube and centrifuged. 50 μL of supernatant was then assayed for glucose content using a Sigma Glucose Oxidase kit as per the manufacturer's instructions.
Rat hepatocytes were isolated and incubated as described in Example C. Cell extracts, were analyzed for glucose content as described in Example C, and also for fructose 1,6-bisphosphate. Fructose 1,6-bisphosphate was assayed spectrophotometrically by coupling its enzymatic conversion to glycerol 3-phosphate to the oxidation of NADH, which was monitored at 340 nm. Reaction mixtures (1 mL) consisted of 200 mM Tris-HCl, pH 7.4, 0.3 mM NADH, 2 units/mL glycerol 3-phosphate dehydrogenase, 2 units/ml triosephosphate isomerase, and 50-100 μL cell extract. After a 30 minute preincubation at 37° C., 1 unit/ml of aldolase was added and the change in absorbance measured until a stable value was obtained. 2 moles of NADH are oxidized in this reaction per mole of fructose 1,6-bisphosphate present in the cell extract.

For series [1], the system named is gluconeogenesis in rat hepatocytes. Put plainly: Inhibition of gluconeogenesis in rat hepatocytes (Example C). The format is cell-based. The following applies: Hepatocyte, glucose production from lactate/pyruvate, 1 hour.
Experimental: Hepatocytes (75 mg wet weight/mL) were incubated in 1 mL Krebs-bicarbonate buffer containing 10 mM Lactate, 1 mM pyruvate, 1 mg/mL BSA, and test compound concentrations from 0 to 500 μM. […] After 1 hour, an aliquot (0.25 mL) was removed, transferred to an Eppendorf tube and centrifuged. 50 μL of supernatant was then assayed for glucose content using a Sigma Glucose Oxidase kit as per the manufacturer's instructions.
Series [2] relates to Sprague-Dawley rats. In words: Drug metabolite levels, blood glucose and hepatic fructose 1,6-bisphosphate after Compound A p.o. in rats (Example E). It is filed as in vivo, rat. As to the method:
Compound A was administered by oral gavage to freely-feeding Sprague Dawley rats (250-300 g). The compound was prepared as a suspension in carboxymethylcellulose, and administered at a dose of 250 mg/kg. For the determination of liver metabolites, rats were serially sacrificed over the course of 24 hours after drug administration. Livers were freeze-clamped, homogenized in perchloric acid, neutralized, and then analyzed for Compound B by anion exchange HPLC.
For the determination of plasma metabolites, rats were instrumented with carotid catheters prior to oral dosing. Blood samples were withdrawn via the catheters at appropriate time points over the course of 8 hours post drug administration. Plasma was prepared from the blood samples by centrifugation, and plasma protein precipitated by the addition of methanol to 60%. Compound A metabolites were quantitated by reverse phase HPLC in the deproteinated plasma samples. A C18 column (1.4 cm×250 mm) was equilibrated with 10 mM sodium phosphate, pH 5.5 and eluted with a gradient from this buffer to acetonitrile. Detection was at 254 nm.
The effect of Compound A on blood glucose and hepatic fructose 1,6-bisphosphate levels was determined in 18-hour fasted Sprague-Dawley rats (250-300 g). Animals were dosed as described above. At appropriate time points post drug administration, rats were anesthetized with halothane and a liver biopsy (approx. 1 g) was taken, as well as a blood sample (2 mL) from the posterior vena cava. A heparin flushed syringe and needle was used for blood collection. The liver sample was immediately homogenized in ice-cold 10% perchloric acid (3 mL), centrifuged, and the supernatant neutralized with ⅓ rd volume of 3 M KOH/[…]. Following centrifugation and filtration, the neutralized extract was analyzed for fructose 1,6-bisphosphate content as described for isolated hepatocytes in Example C. Blood glucose was measured by means of a Hemocue analyzer (Hemocue Inc, Mission Viejo, Calif.).

In series [3] the test system is Sprague-Dawley rats. In words: Glucose lowering, hepatic and plasma drug levels after intraperitoneal dosing of normal fasted rats (Example F). It is filed as in vivo, rat. The following applies: 1 hour post injection. As for the experimental part:
Sprague-Dawley rats (250-300 g) were fasted for 18 hours and then dosed intraperitoneally either with saline or FBPase inhibitor. The vehicle used for drug administration was 10 mM bicarbonate. One hour post injection, rats were anesthetized with halothane, and liver and blood samples were taken and processed as described in Example E. The neutralized liver extracts were analyzed for FBPase inhibitor content by HPLC. A reverse phase YMC ODS AQ column (250×4.6 […]) was used and eluted with a gradient from 10 mM sodium phosphate pH 5.5 to 75% acetonitrile. Absorbance was monitored at 310 nm. Glucose was measured in the blood sample as described in Example C. Plasma was prepared by centrifugation and extracted by addition of methanol to 60% (v/v). The methanolic extract was clarified by centrifugation and filtration and then analyzed by HPLC as described above.

[4] abbreviates: single 250 mg/kg dose p.o., 18-hour fasted rats.

For orientation: IC50 means the concentration at which inhibition is half-maximal. `CC(=O)OC[C@H]1O[C@@H](n2cnc(C(N)=O)c2Br)[C@H](OC(C)=O)[C@@H]1OC(C)=O` [Compound A]: the “intracellular fructose 1,6-bisphosphate” value in the series with rat hepatocytes is given as “dose-dependent elevation”. In the series on rat hepatocytes (Hepatocyte, read-out: IC50, inhibition of glucose production), the IC50 stood at 50 µM. This compound also came in with an IC50 in series [1] of 50 µM. Also, in the series with Sprague-Dawley rats [2] (Compound A 250 mg/kg p.o., over 8 hours), the plasma metabolites entry is recorded as “rapidly deacetylated at all three positions”. For the same compound, the liver metabolites entry with Sprague-Dawley rats [2] (Compound A 250 mg/kg p.o., over 24 hours) is “efficiently converted to Compound B”. Moreover, in the series with Sprague-Dawley rats [2] (setting [4]), the “duration of blood glucose lowering” value is “approximately 8 hours” and the “hepatic fructose-1,6-bisphosphate levels” value is “elevation of hepatic fructose-1,6-bisphosphate levels”.

Consider `CCc1cc(F)c(N)c2nc(-c3ccc(P(=O)(O)O)o3)n(CC(C)C)c12` [Compound E], for which the “intracellular fructose 1,6-bisphosphate” value with rat hepatocytes is recorded as “dose-dependent elevation”. The Liver conc. in the series with Sprague-Dawley rats [3] is 38.4 nmol/g.
